The results in this text go back to PubChem BioAssay (NCI).

Several values for one entry are separate records, joined by “and”; a condition that tells them apart may be missing. Identical values can stand only once.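 Step 1: Grow cells in 96-well plates. Step 2: Expose to compound for 48 hours at 5 concentrations. Step 3: Interpolate endpoints linearly; if unreached, use highest concentration. At the GI50, growth is halved. TGI: concentration producing complete growth inhibition.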

What all share (experiment): NCI anticancer screen, dose series, 48 h
In test [1] the test system is CCRF-CEM leukemia.
In test [2] the test system is SF-295 CNS.
Test [3] relates to SK-OV-3 ovarian.
The subject of test [4] is HS 578T breast.
Test [5] deals with COLO 205 colon.
The test system of test [6] is HL-60(TB) leukemia.
The test system of test [7] is MDA-MB-231 breast.
Test [8] has as its system NCI-H226 lung.
In test [9] the test system is OVCAR-4 ovarian.
Test [10] concerns SN12C renal.

`C[C@H](N)C(=O)N[C@@H]1[C@H]2C(=C(O)C[C@@H](O)[C@@H]2O)C(=O)O[C@]1(C)C(Cl)Cl`: the GI50 is 0.108 µM and 0.087 µM in test [1]; 0.2 µM in test [3]; 0.13 µM in [5]; 0.254 µM and 0.149 µM in test [6]; 0.266 µM in test [8]; 0.263 µM in [9]. The GI50 in test [10] was 0.212 µM. In addition, the TGI is 2.25 µM and 1.58 µM in test [1]; 1.31 µM in test [2]; 2.25 µM and 1.95 µM in test [3]; 0.634 µM in [4]; 0.212 µM and 0.37 µM in [5]; 1.14 µM in test [7]. Moreover, the TGI in test [8] was 1.34 µM and 1.06 µM; in test [9], 3.03 µM and 0.841 µM; in test [10] it was 1.23 µM and 1.67 µM.

Consider `NC(=O)/C(=C\c1ccncc1)c1cccc2ccccc12`, for which the TGI in test [1], in test [2], in [3], in [4], in test [5] and in test [6] was > 100 µM in each case. In addition, the TGI is > 100 µM in test [7], 95.2 µM in test [8], > 100 µM in test [9] and > 100 µM in test [10].

Regarding `CC(C)CCSC1=CC(=O)c2ccccc2C1=O`, the GI50 in [1] is 0.215 µM; in test [2], 14.7 µM; in test [3] it was 26.1 µM; in [4], 5.5 µM; in [5], 10.9 µM; in test [6], 0.325 µM. The GI50 is 1.36 µM in test [7], 6.82 µM in [8], 1.57 µM in [9] and 12.9 µM in [10]. In addition, the TGI in [1] was 0.62 µM; in test [2], 42.2 µM; in test [3] it was > 81.2 µM; in test [4], 30.7 µM; in test [5], 22.9 µM; in [6], 0.943 µM. In addition, the TGI is 3.5 µM in test [7], 32.8 µM in test [8], 3.05 µM in test [9] and 25.8 µM in test [10].

Take `COc1ccccc1-c1cc(/C=C2\C(=O)Nc3ncc(Br)cc32)cc(Br)c1O`: the GI50 in [1] was 9.76 µM; in test [2], 10.5 µM; in test [3] it was > 21.3 µM; in [4], 7.67 µM; in test [5], 20.2 µM; in [6], 7.47 µM. In addition, the GI50 in test [7] was 8.52 µM; in [8], 12.5 µM; in [9], 8.96 µM; in test [10] it was 12.1 µM. The TGI in [1] is > 25 µM; in [2] it was > 25 µM; in test [3], > 25 µM; in test [4], > 25 µM; in [5], > 25 µM; in test [6] it was 23.7 µM. The TGI in [7], in test [8], in test [9] and in test [10] was > 25 µM throughout.

Take `CC(C)CC1C(=O)N2CCC[C@H]2C2(O)O[C@](NC(=O)C3C=C4c5cccc6[nH]c(Br)c(c56)C[C@H]4N(C)C3)(C(C)C)C(=O)N12` (some centres undefined): the GI50 was 8.53 µM in test [1]; 5.3 µM in [2]; 9.66 µM in [3]; 68.9 µM in test [4]; 3.8 µM in test [6]; 11.3 µM in test [8]. For the same molecule, the GI50 in test [9] was 5.78 µM; in test [10], 10.2 µM. Moreover, the TGI in [1] is > 100 µM; in test [2] it was > 100 µM; in test [3], > 100 µM; in test [4] it was > 100 µM; in [5], > 100 µM; in test [6], 29.3 µM. Further, the TGI in [7], in [8], in [9] and in [10] was > 100 µM each time.

Take `Cc1nc2ccccn2c1NC(=O)NNC(=S)Nc1ccc(Br)cc1`: the GI50 in [1] was 40.1 µM; in test [2] it was 57.5 µM; in test [3], 33 µM; in [4], 54.8 µM; in [5], 29.4 µM; in test [6] it was 24.4 µM. The GI50 is 22.6 µM in test [7], 38.4 µM in test [8], 66.2 µM in [9] and 35.9 µM in test [10]. Moreover, the TGI in [1] was > 100 µM; in [2] it was > 100 µM; in test [3], 82.8 µM; in test [4], > 100 µM; in test [5] it was 84.5 µM; in test [6] it was > 100 µM. The TGI was 59.1 µM in [7], > 100 µM in test [8], > 100 µM in [9] and > 100 µM in test [10].

For the molecule `CC1=CC(=O)CC(C)(C)C1(O)/C=C/C(C)=C/C(=O)O` (centres undefined), the TGI in test [1], in test [2], in test [3], in test [4], in test [5] and in test [6] was > 100 µM throughout. Further, the TGI in test [7], in test [8], in [9] and in test [10] was > 100 µM each time.

Consider `Nc1ccccc1SC(CC(=O)c1ccccc1)c1ccc([N+](=O)[O-])cc1` (centres undefined), for which the GI50 in test [1] is 13.7 µM; in test [2], 16.1 µM; in test [3] it was 17.3 µM; in [4] it was 18.1 µM; in test [5] it was 16.7 µM; in [6], 12.6 µM. Also, the GI50 is 11.8 µM in test [7], 18 µM in test [8], 12.6 µM in test [9] and 11.6 µM in test [10]. For the same molecule, the TGI in test [1] turned out to be 46.7 µM; in [2], 30 µM; in test [3], 31 µM; in test [4], 47.6 µM; in test [5], 31.2 µM; in [6] it was 35.2 µM. For the same molecule, the TGI came out at 24.1 µM in test [7], 36.3 µM in [8], 25.9 µM in [9] and 23.8 µM in [10].
